Results taken from PubChem BioAssay (NCI).
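Step 1: Grow cells in 96-well plates. Step 2: Expose to compound for 48 hours at 5 concentrations. Step 3: Interpolate endpoints linearly; if unreached, use highest concentration. TGI is the concentration that stops growth completely.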

Legend:
Assay in all cases: NCI tumour cell line growth inhibition, 48 h
SN12K1 renal = test system: SN12K1 renal
MOLT-4 leukemia = test system: MOLT-4 leukemia
RPMI-8226 leukemia = test system: RPMI-8226 leukemia
SW-620 colon = test system: SW-620 colon
K-562 leukemia = test system: K-562 leukemia
EKVX NSCLC = test system: EKVX NSCLC
LOX IMVI melanoma = test system: LOX IMVI melanoma
KM12 colon = test system: KM12 colon
NCI-H226 lung = test system: NCI-H226 lung
SNB-78 CNS = test system: SNB-78 CNS
SNB-75 CNS = test system: SNB-75 CNS
NCI-H460 lung = test system: NCI-H460 lung
SF-268 CNS = test system: SF-268 CNS
SK-MEL-5 melanoma = test system: SK-MEL-5 melanoma
UO-31 renal = test system: UO-31 renal
SK-MEL-28 melanoma = test system: SK-MEL-28 melanoma
UACC-257 melanoma = test system: UACC-257 melanoma
SN12C renal = test system: SN12C renal
HCC-2998 colon = test system: HCC-2998 colon
UACC-62 melanoma = test system: UACC-62 melanoma
HCT-15 colon = test system: HCT-15 colon
A498 renal = test system: A498 renal
OVCAR-3 ovarian = test system: OVCAR-3 ovarian
SF-539 CNS = test system: SF-539 CNS
MALME-3M melanoma = test system: MALME-3M melanoma
U251 CNS = test system: U251 CNS
OVCAR-4 ovarian = test system: OVCAR-4 ovarian
OVCAR-5 ovarian = test system: OVCAR-5 ovarian
SNB-19 CNS = test system: SNB-19 CNS
HOP-18 NSCLC = test system: HOP-18 NSCLC
SK-OV-3 ovarian = test system: SK-OV-3 ovarian
NCI/ADR-RES ovarian = test system: NCI/ADR-RES ovarian
IGROV1 ovarian = test system: IGROV1 ovarian
SK-MEL-2 melanoma = test system: SK-MEL-2 melanoma
KM20L2 colon = test system: KM20L2 colon
COLO 205 colon = test system: COLO 205 colon
HOP-92 NSCLC = test system: HOP-92 NSCLC
DLD-1 colon = test system: DLD-1 colon
CCRF-CEM leukemia = test system: CCRF-CEM leukemia
A549 NSCLC = test system: A549 NSCLC
M19-MEL melanoma = test system: M19-MEL melanoma
SF-295 CNS = test system: SF-295 CNS
HT29 colon = test system: HT29 colon
P388/ADR leukemia = test system: P388/ADR leukemia
HL-60(TB) leukemia = test system: HL-60(TB) leukemia
XF 498 CNS = test system: XF 498 CNS
CAKI-1 renal = test system: CAKI-1 renal
P388 leukemia = test system: P388 leukemia
NCI-H522 lung = test system: NCI-H522 lung
HCT-116 colon = test system: HCT-116 colon
RXF 393 renal = test system: RXF 393 renal
HOP-62 NSCLC = test system: HOP-62 NSCLC
MCF7 breast = test system: MCF7 breast
NCI-H23 lung = test system: NCI-H23 lung
DMS 273 small cell lung = test system: DMS 273 small cell lung
OVCAR-8 ovarian = test system: OVCAR-8 ovarian

Measured: TGI

C[C@H]1COC(c2ccccn2)=N1
> 100 µM: all assays above
